Experimental data from patent publication US20030036524A1, “Method of sensitising endothelial cells to prodrugs” (priority 2000, published 2003).

Test system: HUVEC cells
Assay: Functional bio-assay: endothelial cell proliferation of Ad5C2B1-infected HUVEC cells treated with ifosfamide, crystal-violet cell number
Assay type: cell-based, human
Settings: day 8
Protocol: To test the bioactivity of the CYP2B1 transgene, human umbilical vein […] (HUVEC) cells [Jaffe et al.; J. Clin. Invest.
HUVEC cells were infected with Ad5C2B1 on day 2 with concentrations ranging from 0 to 2×10^8 PFU/ml for 2 hours.
The cells were seeded at 40.000 cells/well at day 3 (some wells were not sub-cultured but saved for cell extracts and medium collection at day 4).
HUVEC cells were grown on gelatin-coated tissue culture dishes in medium 199 (Biowhitakker), supplemented with 10% (vol/vol) human serum, 10% (v/v) heat-inactivated newborn calf serum (Biowhitakker), 5 U/mL of heparin (Leo Pharma BV), […] of crude EC growth factor (TNO-PG, Leiden), 100 U/mL of penicillin, and […] of streptomycin (Biowhitakker). Cells were grown at 37° C. in a humid atmosphere with 5% (vol/vol) CO2.
Cell numbers were determined at day 8 using crystal-violet staining and optical density measurement.
To quantify the effect off viral infection and prodrug treatment the cells numbers were determined as described above.

## O=P1(NCCCl)OCCCN1CCCl (stereo not drawn) [Ifosfamide, ifosfamide]
Virus 0 PFU/ml, Ifosfamide 0.0625 mM
  Number of Cells: 152000
Virus 0 PFU/ml, Ifosfamide 0.125 mM
  Number of Cells: 151600
Virus 0 PFU/ml, Ifosfamide 0.25 mM
  Number of Cells: 152500
Virus 0 PFU/ml, Ifosfamide 0.50 mM
  Number of Cells: 116000
Virus 1 × 10^8 PFU/ml, Ifosfamide 0.0625 mM
  Number of Cells: 80500
Virus 1 × 10^8 PFU/ml, Ifosfamide 0.125 mM
  Number of Cells: 63600
Virus 1 × 10^8 PFU/ml, Ifosfamide 0.25 mM
  Number of Cells: 66000
Virus 1 × 10^8 PFU/ml, Ifosfamide 0.50 mM
  Number of Cells: 38500
Virus 1.25 × 10^7 PFU/ml, Ifosfamide 0.0625 mM
  Number of Cells: 98000
Virus 1.25 × 10^7 PFU/ml, Ifosfamide 0.125 mM
  Number of Cells: 110000
Virus 1.25 × 10^7 PFU/ml, Ifosfamide 0.25 mM
  Number of Cells: 102000
Virus 1.25 × 10^7 PFU/ml, Ifosfamide 0.50 mM
  Number of Cells: 85000
Virus 2 × 10^8 PFU/ml, Ifosfamide 0.0625 mM
  Number of Cells: 60000
Virus 2 × 10^8 PFU/ml, Ifosfamide 0.125 mM
  Number of Cells: 54000
Virus 2 × 10^8 PFU/ml, Ifosfamide 0.25 mM
  Number of Cells: 53000
Virus 2 × 10^8 PFU/ml, Ifosfamide 0.50 mM
  Number of Cells: 30000
Virus 2.5 × 10^7 PFU/ml, Ifosfamide 0.0625 mM
  Number of Cells: 88000
Virus 2.5 × 10^7 PFU/ml, Ifosfamide 0.125 mM
  Number of Cells: 85000
Virus 2.5 × 10^7 PFU/ml, Ifosfamide 0.25 mM
  Number of Cells: 79200
Virus 2.5 × 10^7 PFU/ml, Ifosfamide 0.50 mM
  Number of Cells: 56000
Virus 5 × 10^7 PFU/ml, Ifosfamide 0.0625 mM
  Number of Cells: 87000
Virus 5 × 10^7 PFU/ml, Ifosfamide 0.125 mM
  Number of Cells: 85000
Virus 5 × 10^7 PFU/ml, Ifosfamide 0.25 mM
  Number of Cells: 75000
Virus 5 × 10^7 PFU/ml, Ifosfamide 0.50 mM
  Number of Cells: 55000
